Where two headings read alike, the source gives them in different places.
Assays:
mtOXPHOS transcripts = type: cell-based, mouse; conditions: for mitoOX (composite Z-score): normalized score vs mock-treated (DMSO) wells
cytochrome c = type: cell-based, mouse; conditions: for cyt c (composite Z-score): normalized score vs mock-treated (DMSO) wells
C2C12 myotubes = conditions: for Viability (composite Z-score): normalized score vs mock-treated (DMSO) wells
[1] = system: mitochondrial membrane potential; type: cell-based, mouse; conditions: for ΔΨm (composite Z-score): normalized score vs mock-treated (DMSO) wells
OXPHOS gene expression = type: cell-based, mouse; conditions: for GE-HTS (composite Z-score): normalized score vs mock-treated (DMSO) wells
reactive oxygen species = type: cell-based, mouse; conditions: for ROS (composite Z-score): normalized score vs mock-treated (DMSO) wells
nuOXPHOS transcripts = type: cell-based, mouse; conditions: for nucOX (composite Z-score): normalized score vs mock-treated (DMSO) wells
[2] = system: cellular dehydrogenase activity; conditions: for MTT (composite Z-score): normalized score vs mock-treated (DMSO) wells
[3] = composite Z-score vs DMSO wells, Conc 20 μM
[4] = composite Z-score vs DMSO, Conc 20 μM
[5] = 20 μM, composite Z-score vs DMSO
[6] = 20.6 μM, composite Z-score vs DMSO
[7] = composite Z-score vs mock-treated (DMSO) wells, Conc 20 μM
[8] = 18.76 μM, composite Z-score vs DMSO
[9] = Table 7, C2C12 myotubes, 48 h, composite Z-score

Sequence of cytochrome c (P62897 whole entry): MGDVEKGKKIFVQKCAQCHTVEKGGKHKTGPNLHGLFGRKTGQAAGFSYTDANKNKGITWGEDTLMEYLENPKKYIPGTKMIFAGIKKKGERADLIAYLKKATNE

`C[N+](C)(C)CCCCCC[N+](C)(C)C` [hexamethonium bromide] gave a mitoOX (mtOXPHOS transcripts; [3]) of −0.442, a cyt c (cytochrome c) of −0.284 and a cyt c (cytochrome c; [3]) of 0.087. The Viability (C2C12 myotubes; [3]) was −0.378, the ΔΨm [1, 3] was −0.602 and the GE-HTS (OXPHOS gene expression; [3]) was −0.735. For the same compound, the ROS (reactive oxygen species; [3]) was 0.176, the nucOX (nuOXPHOS transcripts; [3]) was −0.806 and the MTT [2, 3] was −1.179.

In the case of `CN[C@@H](C)[C@H](O)c1ccccc1` [ephedrine], the mitoOX (mtOXPHOS transcripts; [4]) is reported as −0.056, the cyt c (cytochrome c; [4]) is reported as 0.077 and the Viability (C2C12 myotubes; [4]) is reported as −0.536. The ΔΨm [1, 4] was −0.834, the GE-HTS (OXPHOS gene expression; [4]) was −0.074 and the ROS (reactive oxygen species; [4]) was 1.633. For the same compound, the nucOX (nuOXPHOS transcripts; [4]) was −0.100 and the MTT [2, 4] was −2.342.

In the case of `Nc1ccc(C(=O)NCC(=O)O)cc1` [aminohippuric acid], the mitoOX (mtOXPHOS transcripts; [5]) is reported as 0.304, the mitoOX (mtOXPHOS transcripts; [6]) is reported as −0.395 and the cyt c (cytochrome c; [5]) is reported as 0.243. It also gave a cyt c (cytochrome c; [6]) of 0.320, a Viability (C2C12 myotubes; [5]) of 0.597 and a Viability (C2C12 myotubes; [6]) of −0.266. It also gave a ΔΨm [1, 5] of −0.606, a ΔΨm [1, 6] of −0.343 and a GE-HTS (OXPHOS gene expression; [5]) of 0.220. The GE-HTS (OXPHOS gene expression; [6]) was 0.568, the ROS (reactive oxygen species; [5]) was −0.310 and the ROS (reactive oxygen species; [6]) was 0.426. It also gave a nucOX (nuOXPHOS transcripts; [5]) of 0.160, a nucOX (nuOXPHOS transcripts; [6]) of 0.976 and an MTT [2, 5] of −0.983. The MTT [2, 6] was −0.126.

With `CCCCOc1ccc(C(=O)CCN2CCCCC2)cc1` [dyclonine] the mitoOX (mtOXPHOS transcripts; [3]) was −1.117, the cyt c (cytochrome c) was 0.597 and the cyt c (cytochrome c; [3]) was 1.243. The Viability (C2C12 myotubes; [3]) was −0.640, the ΔΨm [1, 3] was −1.085 and the GE-HTS (OXPHOS gene expression; [3]) was −0.690. The ROS (reactive oxygen species; [3]) was 0.379, the nucOX (nuOXPHOS transcripts; [3]) was −0.377 and the MTT [2, 3] was −0.882.

`O=C(CCBr)N1CCN(C(=O)CCBr)CC1` [pipobroman] gave a mitoOX (mtOXPHOS transcripts) of −1.219, a cyt c (cytochrome c) of 0.441 and a Viability (C2C12 myotubes) of −0.792. For the same compound, the ΔΨm [1] was −0.580, the GE-HTS (OXPHOS gene expression) was −1.074 and the ROS (reactive oxygen species) was 0.342. For the same compound, the nucOX (nuOXPHOS transcripts) was −0.918 and the MTT [2] was −1.907.

Work on `Cc1cc(=O)c2c(O)cc(O)c(C)c2o1` [isoeugenitol] yielded a mitoOX (mtOXPHOS transcripts; [7]) of −0.680, a cyt c (cytochrome c; [7]) of 0.662 and a Viability (C2C12 myotubes; [7]) of 0.377. For the same compound, the ΔΨm [1, 7] was 0.369, the GE-HTS (OXPHOS gene expression; [7]) was −0.717 and the ROS (reactive oxygen species; [7]) was 1.129. It also gave a nucOX (nuOXPHOS transcripts; [7]) of −0.647 and an MTT [2, 7] of −0.500.

With `C[C@@H]1O[C@@H](O[C@H]2C[C@@H](O)[C@]3(CO)[C@H]4[C@H](O)C[C@]5(C)[C@@H](C6=CC(=O)OC6)CC[C@]5(O)[C@@H]4CC[C@]3(O)C2)[C@H](O)[C@H](O)[C@H]1O` [ouabain] the mitoOX (mtOXPHOS transcripts; [4]) was −1.547, the cyt c (cytochrome c; [4]) was 0.262 and the Viability (C2C12 myotubes; [4]) was −0.631. For the same compound, the ΔΨm [1, 4] was −1.093, the GE-HTS (OXPHOS gene expression; [4]) was −1.278 and the ROS (reactive oxygen species; [4]) was 0.466. For the same compound, the nucOX (nuOXPHOS transcripts; [4]) was −0.986 and the MTT [2, 4] was −2.101.

Compound `Nc1ccc(/N=N/c2ccccc2)c(N)n1` [phenazopyridine] has a mitoOX (mtOXPHOS transcripts; [8]) of −0.930, a mitoOX (mtOXPHOS transcripts; [5]) of 0.544 and a cyt c (cytochrome c; [8]) of 0.678. It also gave a cyt c (cytochrome c; [5]) of 0.335, a Viability (C2C12 myotubes; [8]) of −0.413 and a Viability (C2C12 myotubes; [5]) of 0.627. It also gave a ΔΨm [1, 8] of 0.126, a ΔΨm [1, 5] of 1.263 and a GE-HTS (OXPHOS gene expression; [8]) of −0.561. It also gave a GE-HTS (OXPHOS gene expression; [5]) of 0.362, an ROS (reactive oxygen species; [8]) of 0.587 and an ROS (reactive oxygen species; [5]) of 1.911. For the same compound, the nucOX (nuOXPHOS transcripts; [8]) was −0.323, the nucOX (nuOXPHOS transcripts; [5]) was 0.207 and the MTT [2, 8] was −2.094. For the same compound, the MTT [2, 5] was −0.692.

Work on “3alpha-hydroxy-3-deoxyangolensic acid methyl ester” yielded a mitoOX (mtOXPHOS transcripts; [7]) of −0.377, a cyt c (cytochrome c; [7]) of −0.141 and a Viability (C2C12 myotubes; [7]) of 0.949. For the same compound, the ΔΨm [1, 7] was −0.043, the GE-HTS (OXPHOS gene expression; [7]) was −0.456 and the ROS (reactive oxygen species; [7]) was 0.799. For the same compound, the nucOX (nuOXPHOS transcripts; [7]) was −0.474 and the MTT [2, 7] was −1.268.

With `CC(=O)O[C@@H]1c2c(ccc3ccc(=O)oc23)OC(C)(C)[C@@H]1OC(=O)CC(C)C` [dihydrosamidin, reference compound] the “mitoOX (composite Z-score)” value (mtOXPHOS transcripts; Conc 20 μM) was 1.477, the “mito-OXPHOS Z” value (mtOXPHOS transcripts; [9]) was 1.48 and the “cyt c (composite Z-score)” value (cytochrome c; Conc 20 μM) was 0.147. The “Viability (composite Z-score)” value (C2C12 myotubes; Conc 20 μM) was 0.476, the “ΔΨm (composite Z-score)” value ([1]; Conc 20 μM) was 0.199 and the “GE-HTS (composite Z-score)” value (OXPHOS gene expression; Conc 20 μM) was 1.854. The “ROS (composite Z-score)” value (reactive oxygen species; Conc 20 μM) was 4.794, the “nucOX (composite Z-score)” value (nuOXPHOS transcripts; Conc 20 μM) was 1.843 and the “nucOXPHOS Z” value (nuOXPHOS transcripts; [9]) was 1.84. The “MTT (composite Z-score)” value ([2]; Conc 20 μM) was −0.826.

In the case of `O=C(CCCCCCCCCCCCC1CCCC1)Nc1ccc(S(=O)(=O)c2ccc(NC(=O)CCCCCCCCCCCCC3CCCC3)cc2)cc1` [chaulmosulfone], the “mitoOX (composite Z-score)” value (mtOXPHOS transcripts; Conc 20 μM) is reported as 0.305, the “cyt c (composite Z-score)” value (cytochrome c; Conc 20 μM) is reported as −0.036 and the “Viability (composite Z-score)” value (C2C12 myotubes; Conc 20 μM) is reported as −0.010. The “ΔΨm (composite Z-score)” value ([1]; Conc 20 μM) was −0.993, the “GE-HTS (composite Z-score)” value (OXPHOS gene expression; Conc 20 μM) was 0.157 and the “ROS (composite Z-score)” value (reactive oxygen species; Conc 20 μM) was 0.935. The “nucOX (composite Z-score)” value (nuOXPHOS transcripts; Conc 20 μM) was 0.083 and the “MTT (composite Z-score)” value ([2]; Conc 20 μM) was −0.289.

— US20090143279A1 (priority 2007, published 2009)
